Counter-ions that a name gives are not always drawn. Like-named read-outs stand apart in the source and are kept apart here.

Test in data set [1]: not given
The source holds these as a separate data set.

Turning to `CC(NC(C)(C)C)C(=O)c1cccc(Cl)c1` (stereo not shown) [AB, bupropion hydrochloride], under “8 weeks”, the “stability / compatibility of bupropion hydrochloride (in words)” value is reported as “stable for the entire 8 weeks”. Also, the ASSAY is listed as 97.6 (25° C./60% RH, 4 wks); 100.2 (25° C./60% RH, 8 wks); 100.4 (40° C./75% RH, 2 wks); 99.3 (40° C./75% RH, 4 wks); 101.3 (40° C./75% RH, 8 wks); 100.6 (50° C./ambient, 2 wks). This compound registered an ASSAY (T = 0 (initial)) of 100.4. In addition, the “TOTAL RS > LOQ” value is recorded as “<LOQ” (25° C./60% RH, 4 wks); 0.13 (25° C./60% RH, 8 wks); 0.43 (40° C./75% RH, 2 wks); 0.94 (40° C./75% RH, 4 wks); 1.16 (40° C./75% RH, 8 wks); 0.14 (50° C./ambient, 2 wks). The “TOTAL RS > LOQ” value (T = 0 (initial)) is recorded as “<LOQ”.

With `COc1ccc2c(c1)[C@]13CCCC[C@@H]1[C@H](C2)N(C)CC3` [AD, dextromethorphan hydrobromide monohydrate], the ASSAY in data set [1] (25° C./60% RH, 4 wks) was 102.5; in data set [1] (25° C./60% RH, 8 wks), 100.2; in data set [1] (40° C./75% RH, 4 wks) it was 101.5; in data set [1] (40° C./75% RH, 8 wks) it was 100.1; in data set [1] (T = 0 (initial)), 101.4. Also, the “TOTAL RS” value in data set [1] (25° C./60% RH, 4 wks) amounted to 0.25; in data set [1] (25° C./60% RH, 8 wks), 0.20; in data set [1] (40° C./75% RH, 4 wks) it was 0.18; in data set [1] (40° C./75% RH, 8 wks) it was 0.72; in data set [1] (T = 0 (initial)), 0.21.
